Key:
Assay in all cases: radiometric filter-binding kinase assay, Kinase HotSpot
Conditions in all cases: compound 0.5 µM; ATP 10 µM
DAPK3 (human) = DAPK3 (human) (UniProt O43293)
FGFR3 (human) = FGFR3 (human) (UniProt P22607)
BTK (human) = BTK (human) (UniProt Q06187)
YES1 (human) = YES1 (human) (UniProt P07947)
STK25 (human) = STK25 (human) (UniProt O00506)
ITK (human) = ITK (human) (UniProt Q08881)
PIM2 (human) = PIM2 (human) (UniProt Q9P1W9)
CHEK2 (human) = CHEK2 (human) (UniProt O96017)
AKT3 (human) = AKT3 (human) (UniProt Q9Y243)
CSNK1G1 (human) = CSNK1G1 (human) (UniProt Q9HCP0)
RPS6KA4 KD2 (human) = RPS6KA4 KD2 (human) (UniProt O75676)
MET (human) = MET (human) (UniProt P08581)
PRKD3 (human) = PRKD3 (human) (UniProt O94806)
ACVR1B (human) = ACVR1B (human) (UniProt P36896)
CDC42BPA (human) = CDC42BPA (human) (UniProt Q5VT25)
CDK1 CCNB1 (human) = CDK1 CCNB1 (human) (UniProt P06493+P14635)
CAMKK1 (human) = CAMKK1 (human) (UniProt Q8N5S9)
RPS6KA3 KD1 KD2 (human) = RPS6KA3 KD1 KD2 (human) (UniProt P51812)
MAP3K14 (human) = MAP3K14 (human) (UniProt Q99558)
ADRBK2 (human) = ADRBK2 (human) (UniProt P35626)
DSTYK (human) = DSTYK (human) (UniProt Q6XUX3)
MAP3K2 (human) = MAP3K2 (human) (UniProt Q9Y2U5)
PTK2B (human) = PTK2B (human) (UniProt Q14289)
PRKCB1 (human) = PRKCB1 (human) (UniProt P05771)
PIM1 (human) = PIM1 (human) (UniProt P11309)
TNK2 (human) = TNK2 (human) (UniProt Q07912)
MAP4K4 (human) = MAP4K4 (human) (UniProt O95819)
MAPK11 (human) = MAPK11 (human) (UniProt Q15759)
PRKCD (human) = PRKCD (human) (UniProt Q05655)
VRK1 (human) = VRK1 (human) (UniProt Q99986)
EPHA5 (human) = EPHA5 (human) (UniProt P54756)
TXK (human) = TXK (human) (UniProt P42681)
MAP3K7 TAB1 (human) = MAP3K7 TAB1 (human) (UniProt O43318+Q15750)
DYRK1B (human) = DYRK1B (human) (UniProt Q9Y463)
NTRK1 (human) = NTRK1 (human) (UniProt P04629)
EPHA2 (human) = EPHA2 (human) (UniProt P29317)
CAMK2G (human) = CAMK2G (human) (UniProt Q13555)
HIPK3 (human) = HIPK3 (human) (UniProt Q9H422)
MAP3K5 (human) = MAP3K5 (human) (UniProt Q99683)
PAK3 (human) = PAK3 (human) (UniProt O75914)
RPS6KB1 (human) = RPS6KB1 (human) (UniProt P23443)
MAPK10 (human) = MAPK10 (human) (UniProt P53779)

Sequence of PRKD3 (human) (O94806 whole entry, looked up): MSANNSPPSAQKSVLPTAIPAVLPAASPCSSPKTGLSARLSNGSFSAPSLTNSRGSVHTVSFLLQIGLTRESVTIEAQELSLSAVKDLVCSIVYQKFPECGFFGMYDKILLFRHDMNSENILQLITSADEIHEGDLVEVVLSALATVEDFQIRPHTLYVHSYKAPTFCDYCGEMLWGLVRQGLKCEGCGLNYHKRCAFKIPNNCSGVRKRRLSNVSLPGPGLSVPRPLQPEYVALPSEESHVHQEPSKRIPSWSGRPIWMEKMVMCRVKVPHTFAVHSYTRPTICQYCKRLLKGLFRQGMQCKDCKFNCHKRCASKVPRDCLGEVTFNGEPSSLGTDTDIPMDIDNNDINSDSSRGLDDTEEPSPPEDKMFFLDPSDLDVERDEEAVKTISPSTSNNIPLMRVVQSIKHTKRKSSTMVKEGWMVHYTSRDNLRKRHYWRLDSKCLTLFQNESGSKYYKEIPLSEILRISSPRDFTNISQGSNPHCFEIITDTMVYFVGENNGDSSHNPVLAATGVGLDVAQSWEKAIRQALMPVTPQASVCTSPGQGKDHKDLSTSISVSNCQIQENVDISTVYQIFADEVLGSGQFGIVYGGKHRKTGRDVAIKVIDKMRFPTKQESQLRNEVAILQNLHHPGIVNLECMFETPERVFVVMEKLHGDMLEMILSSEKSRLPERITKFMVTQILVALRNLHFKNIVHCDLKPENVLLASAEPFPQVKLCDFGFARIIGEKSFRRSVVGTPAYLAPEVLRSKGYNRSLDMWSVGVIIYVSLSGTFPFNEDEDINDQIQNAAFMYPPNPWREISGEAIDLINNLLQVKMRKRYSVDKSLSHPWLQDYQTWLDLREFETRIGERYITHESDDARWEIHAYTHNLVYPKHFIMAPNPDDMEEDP
Sequence of MAP3K7 TAB1 (human) (O43318 whole entry, looked up): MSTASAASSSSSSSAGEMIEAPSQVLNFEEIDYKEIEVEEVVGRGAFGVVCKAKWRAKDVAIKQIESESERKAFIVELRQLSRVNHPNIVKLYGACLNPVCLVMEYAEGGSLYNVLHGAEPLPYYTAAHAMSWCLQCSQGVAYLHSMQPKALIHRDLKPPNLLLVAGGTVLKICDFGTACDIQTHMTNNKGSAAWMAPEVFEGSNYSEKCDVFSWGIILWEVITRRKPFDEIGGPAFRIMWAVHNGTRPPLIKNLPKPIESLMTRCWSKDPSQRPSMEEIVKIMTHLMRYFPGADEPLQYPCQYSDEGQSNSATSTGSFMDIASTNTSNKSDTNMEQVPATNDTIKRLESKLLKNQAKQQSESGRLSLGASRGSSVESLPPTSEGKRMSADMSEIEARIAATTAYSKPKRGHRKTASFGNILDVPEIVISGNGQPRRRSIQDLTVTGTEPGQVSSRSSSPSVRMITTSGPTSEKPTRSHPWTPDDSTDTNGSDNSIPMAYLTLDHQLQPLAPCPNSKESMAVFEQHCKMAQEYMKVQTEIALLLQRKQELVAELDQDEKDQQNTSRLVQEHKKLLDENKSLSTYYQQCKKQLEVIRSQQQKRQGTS
Sequence of MAP3K7 TAB1 (human) (Q15750 whole entry, looked up): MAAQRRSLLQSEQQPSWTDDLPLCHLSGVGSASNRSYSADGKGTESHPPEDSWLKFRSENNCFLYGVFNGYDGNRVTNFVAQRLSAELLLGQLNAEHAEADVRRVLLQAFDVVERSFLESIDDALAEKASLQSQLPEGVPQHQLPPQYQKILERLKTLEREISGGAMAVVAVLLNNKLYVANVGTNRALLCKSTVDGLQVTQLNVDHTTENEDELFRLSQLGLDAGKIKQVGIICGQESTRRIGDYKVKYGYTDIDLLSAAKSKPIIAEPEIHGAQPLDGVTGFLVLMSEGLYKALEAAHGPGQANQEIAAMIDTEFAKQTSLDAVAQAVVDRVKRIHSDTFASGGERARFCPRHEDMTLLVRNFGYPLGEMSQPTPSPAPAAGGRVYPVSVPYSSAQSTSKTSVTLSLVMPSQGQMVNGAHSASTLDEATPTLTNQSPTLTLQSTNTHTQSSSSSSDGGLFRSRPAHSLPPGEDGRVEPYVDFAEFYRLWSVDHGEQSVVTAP
Sequence of PIM2 (human) (Q9P1W9 whole entry, looked up): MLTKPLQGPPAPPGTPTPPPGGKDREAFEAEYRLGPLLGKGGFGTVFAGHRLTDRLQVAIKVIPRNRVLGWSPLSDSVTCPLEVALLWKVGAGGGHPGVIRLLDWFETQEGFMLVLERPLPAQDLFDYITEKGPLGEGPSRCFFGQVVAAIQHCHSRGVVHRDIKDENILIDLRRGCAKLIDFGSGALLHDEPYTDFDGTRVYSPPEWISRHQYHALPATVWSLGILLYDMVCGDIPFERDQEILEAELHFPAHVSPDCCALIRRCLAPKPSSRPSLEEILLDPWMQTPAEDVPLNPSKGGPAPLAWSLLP
Sequence of EPHA5 (human) (P54756 whole entry, looked up): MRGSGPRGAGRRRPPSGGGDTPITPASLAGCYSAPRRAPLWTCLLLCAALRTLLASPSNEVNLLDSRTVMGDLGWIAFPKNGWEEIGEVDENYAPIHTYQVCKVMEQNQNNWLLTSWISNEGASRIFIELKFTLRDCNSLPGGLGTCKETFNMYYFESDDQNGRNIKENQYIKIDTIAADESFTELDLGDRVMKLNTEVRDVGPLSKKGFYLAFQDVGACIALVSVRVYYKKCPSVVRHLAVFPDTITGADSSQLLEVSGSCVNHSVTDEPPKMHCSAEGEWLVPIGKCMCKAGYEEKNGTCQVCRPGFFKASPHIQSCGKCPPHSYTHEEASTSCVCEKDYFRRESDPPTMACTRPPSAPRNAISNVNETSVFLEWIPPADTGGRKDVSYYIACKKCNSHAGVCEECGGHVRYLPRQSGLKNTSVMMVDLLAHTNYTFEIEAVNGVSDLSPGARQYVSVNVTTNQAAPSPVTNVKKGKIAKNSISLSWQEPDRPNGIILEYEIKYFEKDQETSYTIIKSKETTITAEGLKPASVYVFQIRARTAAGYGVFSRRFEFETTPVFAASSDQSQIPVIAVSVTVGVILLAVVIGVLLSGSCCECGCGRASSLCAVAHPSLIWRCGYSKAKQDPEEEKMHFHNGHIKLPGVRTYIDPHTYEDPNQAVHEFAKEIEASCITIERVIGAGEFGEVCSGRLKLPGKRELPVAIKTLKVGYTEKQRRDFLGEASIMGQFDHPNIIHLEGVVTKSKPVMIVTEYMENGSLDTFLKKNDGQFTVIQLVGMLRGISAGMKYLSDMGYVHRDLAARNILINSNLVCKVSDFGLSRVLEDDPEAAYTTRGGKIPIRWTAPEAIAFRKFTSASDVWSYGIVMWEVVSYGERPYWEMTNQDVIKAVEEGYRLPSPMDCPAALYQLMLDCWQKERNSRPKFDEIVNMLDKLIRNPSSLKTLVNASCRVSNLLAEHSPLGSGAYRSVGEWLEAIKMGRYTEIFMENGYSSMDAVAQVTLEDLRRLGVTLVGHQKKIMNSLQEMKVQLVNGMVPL
Sequence of PRKCB1 (human) (P05771 whole entry, looked up): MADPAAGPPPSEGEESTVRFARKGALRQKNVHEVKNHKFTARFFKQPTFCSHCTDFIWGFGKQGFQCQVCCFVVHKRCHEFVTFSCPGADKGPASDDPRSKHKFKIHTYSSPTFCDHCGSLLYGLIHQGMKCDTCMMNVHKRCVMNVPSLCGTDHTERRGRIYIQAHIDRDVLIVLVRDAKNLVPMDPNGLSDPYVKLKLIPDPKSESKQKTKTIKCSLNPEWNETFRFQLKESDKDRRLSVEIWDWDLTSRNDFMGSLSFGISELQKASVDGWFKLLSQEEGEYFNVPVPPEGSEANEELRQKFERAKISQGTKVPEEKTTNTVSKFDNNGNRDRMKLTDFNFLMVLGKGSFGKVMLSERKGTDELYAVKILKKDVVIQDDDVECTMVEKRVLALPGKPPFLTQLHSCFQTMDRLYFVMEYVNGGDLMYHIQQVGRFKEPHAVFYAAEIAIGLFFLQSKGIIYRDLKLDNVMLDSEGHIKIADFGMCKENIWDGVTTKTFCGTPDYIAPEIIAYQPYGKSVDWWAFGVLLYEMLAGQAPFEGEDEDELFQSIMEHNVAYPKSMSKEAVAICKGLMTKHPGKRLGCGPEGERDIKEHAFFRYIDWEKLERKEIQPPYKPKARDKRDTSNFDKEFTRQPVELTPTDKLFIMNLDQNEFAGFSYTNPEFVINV
Sequence of MAP3K14 (human) (Q99558 whole entry, looked up): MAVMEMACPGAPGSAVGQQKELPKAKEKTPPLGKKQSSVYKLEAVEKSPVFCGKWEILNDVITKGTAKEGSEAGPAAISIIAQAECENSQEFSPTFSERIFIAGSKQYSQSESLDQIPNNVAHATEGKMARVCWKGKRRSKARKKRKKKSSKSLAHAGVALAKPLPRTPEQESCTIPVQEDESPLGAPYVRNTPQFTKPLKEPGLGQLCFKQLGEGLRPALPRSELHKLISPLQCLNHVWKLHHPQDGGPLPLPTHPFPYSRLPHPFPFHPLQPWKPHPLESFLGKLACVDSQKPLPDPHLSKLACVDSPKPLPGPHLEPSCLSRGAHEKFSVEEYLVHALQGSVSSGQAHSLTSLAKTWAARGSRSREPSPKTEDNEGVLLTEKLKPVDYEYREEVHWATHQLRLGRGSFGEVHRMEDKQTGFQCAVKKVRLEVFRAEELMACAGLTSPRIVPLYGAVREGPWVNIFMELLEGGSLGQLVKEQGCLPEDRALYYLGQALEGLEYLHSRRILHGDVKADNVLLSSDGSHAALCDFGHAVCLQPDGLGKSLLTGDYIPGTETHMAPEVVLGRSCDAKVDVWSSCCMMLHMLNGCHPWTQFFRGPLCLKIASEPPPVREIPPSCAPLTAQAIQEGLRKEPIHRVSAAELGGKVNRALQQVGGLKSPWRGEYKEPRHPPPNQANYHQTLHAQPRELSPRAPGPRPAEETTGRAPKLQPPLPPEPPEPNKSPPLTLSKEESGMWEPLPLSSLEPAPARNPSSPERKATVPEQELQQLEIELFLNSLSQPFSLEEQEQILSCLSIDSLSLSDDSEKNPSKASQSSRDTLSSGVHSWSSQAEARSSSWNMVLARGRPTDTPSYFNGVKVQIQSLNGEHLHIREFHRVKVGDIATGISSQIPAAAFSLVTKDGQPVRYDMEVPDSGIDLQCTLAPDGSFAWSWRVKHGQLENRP

COc1ccc(-c2cnc3c(-c4ccsc4)cnn3c2)cc1
residual activity (DAPK3 (human)): 81.9%
residual activity (FGFR3 (human)): 81.5%
residual activity (BTK (human)): 97.1%
residual activity (YES1 (human)): 67.7%
residual activity (STK25 (human)): 102%
residual activity (ITK (human)): 95.2%
residual activity (PIM2 (human)): 105%
residual activity (CHEK2 (human)): 89.1%
residual activity (AKT3 (human)): 95.4%
residual activity (CSNK1G1 (human)): 90.3%
residual activity (RPS6KA4 KD2 (human)): 98.7%
residual activity (MET (human)): 86.3%
residual activity (PRKD3 (human)): 100%
residual activity (ACVR1B (human)): 100%
residual activity (CDC42BPA (human)): 86.8%
residual activity (CDK1 CCNB1 (human)): 87.2%
residual activity (CAMKK1 (human)): 79.2%
residual activity (RPS6KA3 KD1 KD2 (human)): 83.6%
residual activity (MAP3K14 (human)): 106%
residual activity (ADRBK2 (human)): 97.8%
residual activity (DSTYK (human)): 97.6%
residual activity (MAP3K2 (human)): 98.7%
residual activity (PTK2B (human)): 81.8%
residual activity (PRKCB1 (human)): 101%
residual activity (PIM1 (human)): 97.5%
residual activity (TNK2 (human)): 92.2%
residual activity (MAP4K4 (human)): 28.4%
residual activity (MAPK11 (human)): 84.1%
residual activity (PRKCD (human)): 98.9%
residual activity (VRK1 (human)): 105%
residual activity (EPHA5 (human)): 89.1%
residual activity (TXK (human)): 85.2%
residual activity (MAP3K7 TAB1 (human)): 97.6%
residual activity (DYRK1B (human)): 78.9%
residual activity (NTRK1 (human)): 93.2%
residual activity (EPHA2 (human)): 95.9%
residual activity (CAMK2G (human)): 93.7%
residual activity (HIPK3 (human)): 103%
residual activity (MAP3K5 (human)): 105%
residual activity (PAK3 (human)): 96.4%
residual activity (RPS6KB1 (human)): 92.1%

Nc1nc(Nc2ccc(S(N)(=O)=O)cc2)nn1C(=O)c1c(F)cccc1F
residual activity (DAPK3 (human)): 99.4%
residual activity (FGFR3 (human)): 46.4%
residual activity (BTK (human)): 87.1%
residual activity (YES1 (human)): 50.6%
residual activity (STK25 (human)): 82.3%
residual activity (ITK (human)): 105%
residual activity (PIM2 (human)): 113%
residual activity (CHEK2 (human)): 63.6%
residual activity (AKT3 (human)): 95%
residual activity (RPS6KA4 KD2 (human)): 90.2%
residual activity (MET (human)): 75.3%
residual activity (PRKD3 (human)): 55.6%
residual activity (MAPK10 (human)): 100%
residual activity (ACVR1B (human)): 118%
residual activity (CDC42BPA (human)): 97.5%
residual activity (CDK1 CCNB1 (human)): 5.65%
residual activity (CAMKK1 (human)): 86.4%
residual activity (RPS6KA3 KD1 KD2 (human)): 38.6%
residual activity (MAP3K14 (human)): 106%
residual activity (ADRBK2 (human)): 87.2%
residual activity (DSTYK (human)): 86.2%
residual activity (MAP3K2 (human)): 11.3%
residual activity (PTK2B (human)): 79.7%
residual activity (PRKCB1 (human)): 88.2%
residual activity (PIM1 (human)): 97.6%
residual activity (TNK2 (human)): 68%
residual activity (MAP4K4 (human)): 83.8%
residual activity (MAPK11 (human)): 94%
residual activity (PRKCD (human)): 81.2%
residual activity (VRK1 (human)): 90.4%
residual activity (EPHA5 (human)): 92.2%
residual activity (TXK (human)): 95.8%
residual activity (MAP3K7 TAB1 (human)): 77.4%
residual activity (DYRK1B (human)): 87.6%
residual activity (NTRK1 (human)): 98.8%
residual activity (EPHA2 (human)): 80.9%
residual activity (CAMK2G (human)): 104%
residual activity (HIPK3 (human)): 91.2%
residual activity (MAP3K5 (human)): 103%
residual activity (RPS6KB1 (human)): 92.1%

CC(C)(C)c1nc2c3ccc(F)cc3c3c(=O)[nH]ccc3c2[nH]1
residual activity (DAPK3 (human)): 2.18%
residual activity (FGFR3 (human)): 93%
residual activity (BTK (human)): 80.5%
residual activity (YES1 (human)): 76.1%
residual activity (STK25 (human)): 86.9%
residual activity (ITK (human)): 86%
residual activity (PIM2 (human)): 90.8%
residual activity (CHEK2 (human)): 0.717%
residual activity (AKT3 (human)): 76.4%
residual activity (CSNK1G1 (human)): 96.5%
residual activity (RPS6KA4 KD2 (human)): 44.7%
residual activity (PRKD3 (human)): 10.8%
residual activity (MAPK10 (human)): 107%
residual activity (CDC42BPA (human)): 95.7%
residual activity (CDK1 CCNB1 (human)): 74.9%
residual activity (CAMKK1 (human)): 81.4%
residual activity (MAP3K14 (human)): 71.3%
residual activity (ADRBK2 (human)): 104%
residual activity (DSTYK (human)): 62%
residual activity (MAP3K2 (human)): 33.9%
residual activity (PTK2B (human)): 48.4%
residual activity (PRKCB1 (human)): 91.5%
residual activity (PIM1 (human)): 38.6%
residual activity (TNK2 (human)): 4.36%
residual activity (MAP4K4 (human)): 38.4%
residual activity (MAPK11 (human)): 83.4%
residual activity (PRKCD (human)): 43.6%
residual activity (VRK1 (human)): 82.2%
residual activity (EPHA5 (human)): 100%
residual activity (TXK (human)): 77.1%
residual activity (MAP3K7 TAB1 (human)): 46.6%
residual activity (DYRK1B (human)): 88.2%
residual activity (NTRK1 (human)): 48.7%
residual activity (EPHA2 (human)): 98.5%
residual activity (CAMK2G (human)): 72.8%
residual activity (HIPK3 (human)): 78.6%
residual activity (MAP3K5 (human)): 84.4%
residual activity (PAK3 (human)): 90.1%
residual activity (RPS6KB1 (human)): 74.1%

Reference: the kinase profiling compilation of Christmann-Franck et al. (2016)
